In publication PMC11995724, “Antibiotic target discovery by integrated phenotypic and activity-based profiling of electrophilic fragments” (Cell chemical biology, 2025):

Assay: in vitro
Conditions: human, hek293t cells

| Structure (SMILES) | viability at 48 h, 25 µM [%] |
| --- | --- |
| CC(C)NC(=O)C(C#N)=Cc1cccc(O)c1 [8-A22, 2-cyano-3-(3-hydroxyphenyl)-N-(propan-2-yl)prop-2-enamide] | 67.3 |
| N#CC(=Cc1ccc2c(c1)OCCO2)C(=O)Nc1nccs1 [8-B03, 2-cyano-3-(2,3-dihydro-1,4-benzodioxin-6-yl)-N-(1,3-thiazol-2-yl)prop-2-enamide] | 115 |
| COCC(C)n1c(C)cc(C=C(C#N)C(=O)NS(C)(=O)=O)c1C (stereo not drawn) [8-B04, 2-cyano-N-methanesulfonyl-3-[1-(1-methoxypropan-2-yl)-2,5-dimethyl-1H-pyrrol-3-yl]prop-2-enamide] | 94.8 |
| N#CC(=Cc1ccc(O)c(O)c1)C(=O)Nc1ccccc1F [8-B05, 2-cyano-3-(3,4-dihydroxyphenyl)-N-(2-fluorophenyl)prop-2-enamide] | 92.9 |
| N#CC(=Cc1cccc(F)c1F)C(=O)NCc1ccccc1 [8-B06, N-benzyl-2-cyano-3-(2,3-difluorophenyl)prop-2-enamide] | 27.1 |
| N#CC(=Cc1ccc(Cl)c(Cl)c1)C(=O)NCc1ccccc1 [8-B07, N-benzyl-2-cyano-3-(3,4-dichlorophenyl)prop-2-enamide] | 105 |
| N#CC(=Cc1ccc([N+](=O)[O-])c(Cl)c1)C(=O)NC1CCCCC1 [8-B08, 3-(3-chloro-4-nitrophenyl)-2-cyano-N-cyclohexylprop-2-enamide] | 0.92 |
| CCOc1ccccc1C=C(C#N)C(=O)Nc1ccc(Cl)cc1 [8-B09, N-(4-chlorophenyl)-2-cyano-3-(2-ethoxyphenyl)prop-2-enamide] | 82.9 |
| Cc1cc(=O)[nH]c(-c2cccc(NC(=O)C(C#N)=Cc3ccco3)c2)n1 [8-B10, 2-cyano-3-(furan-2-yl)-N-[3-(4-methyl-6-oxo-1,6-dihydropyrimidin-2-yl)phenyl]prop-2-enamide] | 57.8 |
| N#CC(=Cc1ccccc1Cl)C(=O)Nc1ccc(Cl)cc1 [8-B11, 3-(2-chlorophenyl)-N-(4-chlorophenyl)-2-cyanoprop-2-enamide] | 113 |
| Cc1ccccc1N1C(=O)CSC1=C(C#N)C(=O)N1CCCCC1 [8-B12, 2-[3-(2-methylphenyl)-4-oxo-1,3-thiazolidin-2-ylidene]-3-oxo-3-(piperidin-1-yl)propanenitrile] | 113 |
| Cc1ccsc1C=C(C#N)C(=O)N1CCN(c2ccccc2)CC1 [8-B13, 3-(3-methylthiophen-2-yl)-2-(4-phenylpiperazine-1-carbonyl)prop-2-enenitrile] | 92.4 |
| N#CC(=Cc1c(Cl)cccc1Cl)C(=O)NCCc1ccccc1 [8-B14, 2-cyano-3-(2,6-dichlorophenyl)-N-(2-phenylethyl)prop-2-enamide] | 2 |
| COc1ccccc1NC(=O)C(C#N)=Cc1ccc(C)s1 [8-B15, 2-cyano-N-(2-methoxyphenyl)-3-(5-methylthiophen-2-yl)prop-2-enamide] | 103 |
| N#CC(=Cc1ccc(O)cc1)C(=O)NCc1ccc(Cl)cc1 [8-B16, N-[(4-chlorophenyl)methyl]-2-cyano-3-(4-hydroxyphenyl)prop-2-enamide] | 102 |
| Cc1cc(C)c(NC(=O)C(C#N)=Cc2cccnc2)c(C)c1 [8-B17, 2-cyano-3-(pyridin-3-yl)-N-(2,4,6-trimethylphenyl)prop-2-enamide] | 122 |
| Cc1c(C=C(C#N)C(=O)Nc2nccs2)cc(C#N)n1C [8-B18, 2-cyano-3-(5-cyano-1,2-dimethyl-1H-pyrrol-3-yl)-N-(1,3-thiazol-2-yl)prop-2-enamide] | 94.1 |
| N#CC(=Cc1ccncc1)C(=O)Nc1cccc(Cl)c1 [8-B19, N-(3-chlorophenyl)-2-cyano-3-(pyridin-4-yl)prop-2-enamide] | 85.5 |

| Structure (SMILES) | viability at 48 h, 25 µM [%] |
| --- | --- |
| N#CC(=Cc1ccco1)C(=O)Nc1cccc2ncccc12 [8-B20, 2-cyano-3-(furan-2-yl)-N-(quinolin-5-yl)prop-2-enamide] | 85.9 |
| N#CC(=Cc1cccnc1)C(=O)Nc1ccc(F)cc1 [8-B21, 2-cyano-N-(4-fluorophenyl)-3-(pyridin-3-yl)prop-2-enamide] | 125 |
| N#CC(=Cc1cccc([N+](=O)[O-])c1)C(=O)NCc1ccccc1 [8-B22, N-benzyl-2-cyano-3-(3-nitrophenyl)prop-2-enamide] | 32 |
| COc1ccc(C=C(C#N)C(=O)Nc2ccc(Cl)c(Cl)c2)cc1 [8-C03, 2-cyano-N-(3,4-dichlorophenyl)-3-(4-methoxyphenyl)prop-2-enamide] | 99.6 |
| N#CC(=Cc1ccc(N2CCCCC2)cc1)C(=O)Nc1nccs1 [8-C04, 2-cyano-3-[4-(piperidin-1-yl)phenyl]-N-(1,3-thiazol-2-yl)prop-2-enamide] | 97.1 |
| COc1ccc(C=C(C#N)C(=O)Nc2ccc([N+](=O)[O-])cc2)cc1 [8-C05, 2-cyano-3-(4-methoxyphenyl)-N-(4-nitrophenyl)prop-2-enamide] | 81.5 |
| N#CC(=Cc1ccc(-c2ccccc2)cc1)C(=O)NCc1ccccc1 [8-C06, N-benzyl-3-{[1,1'-biphenyl]-4-yl}-2-cyanoprop-2-enamide] | 81.4 |
| N#CC(=Cc1ccc(-c2cccc([N+](=O)[O-])c2)o1)C(=O)N1CCOCC1 [8-C07, 2-(morpholine-4-carbonyl)-3-[5-(3-nitrophenyl)furan-2-yl]prop-2-enenitrile] | 79.1 |
| CC(C)NC(=O)C(C#N)=Cc1cc(F)ccc1F [8-C08, 2-cyano-3-(2,5-difluorophenyl)-N-(propan-2-yl)prop-2-enamide] | 138 |
| COc1ccc(C=C(C#N)C(=O)NCc2ccccc2)cc1O [8-C09, N-benzyl-2-cyano-3-(3-hydroxy-4-methoxyphenyl)prop-2-enamide] | 66.6 |
| N#CC(=Cc1cc(F)ccc1F)C(=O)Nc1ccc(F)cc1F [8-C10, 2-cyano-N-(2,4-difluorophenyl)-3-(2,5-difluorophenyl)prop-2-enamide] | 91.2 |
| N#CC(=Cc1ccc(Cl)cc1)C(=O)Nc1nccs1 [8-C11, 3-(4-chlorophenyl)-2-cyano-N-(1,3-thiazol-2-yl)prop-2-enamide] | 79 |
| CC(=O)Nc1ccc(NC(=O)C(C#N)=Cc2cc(F)ccc2F)cc1 [8-C12, 2-cyano-3-(2,5-difluorophenyl)-N-(4-acetamidophenyl)prop-2-enamide] | 57.6 |
| N#CC(=Cc1ccccc1)C(=O)Nc1ccccc1F [8-C13, 2-cyano-N-(2-fluorophenyl)-3-phenylprop-2-enamide] | 69.6 |
| Cc1ccc(C=C(C#N)C(=O)Nc2ccc(C(=O)O)cc2)o1 [8-C14, 4-[2-cyano-3-(5-methylfuran-2-yl)prop-2-enamido]benzoic acid] | 109 |
| N#CC(=Cc1ccccc1Cl)C(=O)Nc1cccc2ncccc12 [8-C15, 3-(2-chlorophenyl)-2-cyano-N-(quinolin-5-yl)prop-2-enamide] | 51 |
| COc1cccc(NC(=O)C(C#N)=Cc2ccc(C)cc2C)c1 [8-C16, 2-cyano-3-(2,4-dimethylphenyl)-N-(3-methoxyphenyl)prop-2-enamide] | 91.5 |
| C=CCNC(=O)C(C#N)=Cc1cc(C)n(-c2ccc(C)cc2)c1C [8-C17, 2-cyano-3-[2,5-dimethyl-1-(4-methylphenyl)-1H-pyrrol-3-yl]-N-(prop-2-en-1-yl)prop-2-enamide] | 60.7 |
